The text below walks through data of patent publication US20240383870A1, “HETEROCYCLIC ALDEHYDE TRAPPING COMPOUNDS AND USES THEREOF” (Aldeyra Therapeutics, Inc., priority 2021, published 2024).

One test has as its system IL-7. The test is described as follows: Acute LPS-induced sepsis in C57BL/6 mice: IL-7 cytokine detection assay. It counts as in vivo. Particulars: 100 mpk IP; LPS-challenged mice, plasma at 6.5 h; unpaired t-test vs vehicle.
The next test relates to IL-10. The test is described as follows: Acute LPS-induced sepsis in C57BL/6 mice: IL-10 cytokine detection assay. The format is in vivo. Particulars: 100 mpk IP; LPS-challenged mice, plasma at 6.5 h; unpaired t-test vs vehicle.
Another test relates to IL-15. The test is described as follows: Acute LPS-induced sepsis in C57BL/6 mice: IL-15 cytokine detection assay. It counts as in vivo. Particulars: 100 mpk IP; LPS-challenged mice, plasma at 6.5 h; unpaired t-test vs vehicle.
Another test relates to MCP-1(CCL2). The test is described as follows: Acute LPS-induced sepsis in C57BL/6 mice: MCP-1(CCL2) cytokine detection assay. It counts as in vivo. Conditions: 100 mpk IP; LPS-challenged mice, plasma at 6.5 h; unpaired t-test vs vehicle.
Another test deals with MIP-1a(CCL3). Nature of the test: Acute LPS-induced sepsis in C57BL/6 mice: MIP-1a(CCL3) cytokine detection assay. The format is in vivo. Conditions: 100 mpk IP; LPS-challenged mice, plasma at 6.5 h; unpaired t-test vs vehicle.
The subject of a further test is MIP2(CXCL2). The test is described as follows: Acute LPS-induced sepsis in C57BL/6 mice: MIP2(CXCL2) cytokine detection assay. Particulars: LPS-challenged mice, plasma at 6.5 h, unpaired t-test vs vehicle. The format is in vivo. The text has this: FIG. 27 is a graph showing the results of a MIP2(CXCL2) cytokine detection assay in samples collected from mouse subjects after administration of compounds of the present disclosure.
(§1) The primary objective of this study was to collect plasma samples of lipopolysaccharide (LPS) challenged C57BL/6 mice after dose of test compounds to provide a cytokine profile as impacted by prophylactic treatments. This study models acute sepsis, which is a systemic inflammatory syndrome initiated by Gram-negative and Gram-positive bacteria and fungi which infect the lungs, abdomen, bloodstream, and renal or genitourinary tracts. Sepsis patients ultimately die of multiorgan failure which is caused by extensive tissue hypo-oxygenation due to ongoing microvascular leakage, disseminated intravascular coagulation, compromised energy production, and metabolic alterations. Sepsis is characterized by an early systemic inflammatory response phase featuring symptoms, such as tachycardia, fever, hyperventilation, and activation of the complement and coagulation cascades. However, it is now appreciated that a compensatory anti-inflammatory response phase follows, characterized by neuroendocrine-mediated immunosuppression. Since these processes are the result of interaction between cells of inflammation and organs, investigation of the treatment of this syndrome requires the use of intact animal models. The use of ten mice per group allows useful statistical modelling of the results.
(§2) For the data shown in Table 2A, 103 mice (female, 18-22 gram, C57BL/6) were purchased from ENVIGO. The mice were housed in 20 cages of 5 mice per cage with 1 cage of 3 mice as extra. The cages had filter tops and autoclaved bedding, and the animals were placed in quarantine with daily inspection. The treatment groups are detailed in Table 2A below. 10 mice were included in each group. […] MC=methyl cellulose.
(§3) For the data shown in Table 2B, 185 mice (female, 18-22 gram, C57BL/6) were purchased from ENVIGO. The mice were housed in 37 cages of 5 mice per cage. The cages had filter tops and autoclaved bedding, and the animals were placed in quarantine with daily inspection. The treatment groups are detailed in Table 2B below. 10 mice were included in each group. The mice were dosed by oral gavage (P0) at 10 ml/kg as per the table below. MC=methyl cellulose.
(§4) At T=0 h, the mice were dosed with one of the test compounds as described in the above table.
(§5) At T=0.5 h, the mice were injected IP with 1.5 mg/kg […] (Sigma).
(§6) At T=6.5 h, all mice were anesthetized and exsanguinated into pre-chilled EDTA-treated tubes. […]
(§7) A 32-plex cytokine panel was obtained from Eve Technologies. Each cytokine was assessed based against a 7 point curve range in duplicate. […]

The nature of test [1]: 4-HNE trapping experiment (aldehyde adduct formation, Example 6). Particulars: 4-HNE 1.5 eq; 20% Captisol in phosphate buffer pH 7.2; 24-h time period; LCMS. On the procedure:
Each of compounds ADX-102, I-32, I-8, I-29, and I-31 ([…]) was tested for reactivity using 4-hydroxynonenal (4-HNE) (1.5 eq) as a model aldehyde. ADX-102 is also known as Reproxalap. Each compound was dissolved in a 20% solution of Captisol in phosphate buffer (1 mL, pH=7.2). Then, 4-HNE in ethanol (10 mg/mL solution) was added to the solution. The ensuing reaction was monitored by LCMS analysis. The relative ratio of experimental compound/4-HNE adduct to final composition was plotted against time to provide an indication of reaction rate and level of reaction completeness.

For a further test, the system named is IL-2. The test is described as follows: Acute LPS-induced sepsis in C57BL/6 mice: IL-2 cytokine detection assay. The format is in vivo. Conditions: 200 mpk PO; LPS-challenged mice, plasma at 6.5 h; unpaired t-test vs vehicle.
Source text: FIG. 7 is a graph showing the results of an IL-2 cytokine detection assay in samples collected from mouse subjects after administration of compounds of the present disclosure.
as §1, with “Since these processes are the result of interaction between cells of inflammation and organs, investigation of the treatment of this syndrome requires the use of intact animal models. The use of ten mice per group allows useful statistical modelling of the results.” left out
as §7

The subject of another test is IL-6. The test is described as follows: Acute LPS-induced sepsis in C57BL/6 mice: IL-6 cytokine detection assay. The format is in vivo. Particulars: 200 mpk PO; LPS-challenged mice, plasma at 6.5 h; unpaired t-test vs vehicle.
Source text: FIG. 11 is a graph showing the results of an IL-6 cytokine detection assay in samples collected from mouse subjects after administration of compounds of the present disclosure.
as §1
(§8) For the data shown in Table 2A, 103 mice (female, 18-22 gram, C57BL/6) were purchased from ENVIGO. The mice were housed in 20 cages of 5 mice per cage with 1 cage of 3 mice as extra. The cages had filter tops and autoclaved bedding, and the animals were placed in quarantine with daily inspection. The treatment groups are detailed in Table 2A below. 10 mice were included in each group. The mice were dosed by oral gavage (PO) at 10 ml/kg as per the table below. MC=methyl cellulose.
as §3, §4, §5, §6, §7

A further test concerns IL-9. The test is described as follows: Acute LPS-induced sepsis in C57BL/6 mice: IL-9 cytokine detection assay. It counts as in vivo. Particulars: 200 mpk PO; LPS-challenged mice, plasma at 6.5 h; unpaired t-test vs vehicle.
Source text: FIG. 13 is a graph showing the results of an IL-9 cytokine detection assay in samples collected from mouse subjects after administration of compounds of the present disclosure.
as §1
For the data shown in Table 2A, 103 mice (female, 18-22 gram, C57BL/6) were purchased from ENVIGO. The mice were housed in 20 cages of 5 mice per cage with 1 cage of 3 mice as extra. The cages had filter tops and autoclaved bedding, and the animals were placed in quarantine with daily inspection. The treatment groups are detailed in Table 2A below. 10 mice were included in each group. The mice were dosed by oral gavage (PO) at 10 ml/kg as per the table below. MC=methyl cellulose. […]
as §7

A further test deals with IL-12(p70). The test is described as follows: Acute LPS-induced sepsis in C57BL/6 mice: IL-12(p70) cytokine detection assay. It counts as in vivo. Conditions: 200 mpk PO; LPS-challenged mice, plasma at 6.5 h; unpaired t-test vs vehicle.
Source text: FIG. 16 is a graph showing the results of an IL-12(p70) cytokine detection assay in samples collected from mouse subjects after administration of compounds of the present disclosure.
as §1, §2, §3, §4, §5
(§9) At T=6.5 h, all mice were anesthetized and exsanguinated into pre-chilled EDTA-treated tubes. The blood was processed to plasma which was stored in labeled 0.5 polypropylene snap-cap tubes (0.5 mL Eppendorf Safe-Lock Tubes (Fisher Scientific) at −80° C.
(§10) Preparation of vehicle: 1.0 gram of methyl cellulose (Sigma) was dissolved in 200 mL of water (USP purified) to make a solution of 0.5% methyl cellulose in water. Preparation of LPS solution: 6 mg of LPS (from Escherichia Coli 055:B5, Cat #L2880, Sigma Lot #057m4013) was dissolved in 20 ml of saline to give a LPS solution of 0.3 mg/ml. All mice were injected with 5 ml/kg (1.5 mg/kg) at the scheduled time by intraperitoneal injection.
A 32-plex cytokine panel was obtained from Eve Technologies. Each cytokine was assessed based against a 7 point curve range in duplicate. The average of the two replicate analyses was used for statistics. Unpaired t-tests were performed using Excel™ contrasting vehicle against each treatment group. One star indicates P<0.05. […]

The test system of a further test is KC. Nature of the test: Acute LPS-induced sepsis in C57BL/6 mice: KC cytokine detection assay. It counts as in vivo. Particulars: 200 mpk PO; LPS-challenged mice, plasma at 6.5 h; unpaired t-test vs vehicle.
Source text: FIG. 20 is a graph showing the results of a KC cytokine detection assay in samples collected from mouse subjects after administration of compounds of the present disclosure.
as §1, §8, §3, §4, §5, §9, §10
A 32-plex cytokine panel was obtained from Eve Technologies. Each cytokine was assessed based against a 7 point curve range in duplicate. The average of the two replicate analyses was used for statistics. Unpaired t-tests were performed using Excel™ contrasting vehicle against each treatment group. One star indicates P<0.05. Two stars indicates P<0.01. Three stars indicates P<0.001. Four stars indicates P<0.0001. Most, but not all, statistically significant results are indicated with star(s).

For test [2], the system named is leukemia inhibitory factor (LIF). The test is described as follows: Acute LPS-induced sepsis in C57BL/6 mice: leukemia inhibitory factor (LIF) cytokine detection assay. It counts as in vivo. Particulars: 200 mpk PO; LPS-challenged mice, plasma at 6.5 h; unpaired t-test vs vehicle.
Source text: FIG. 21 is a graph showing the results of a leukemia inhibitory factor (LIF) cytokine detection assay in samples collected from mouse subjects after administration of compounds of the present disclosure. LIF is an interleukin 6 class cytokine that affects cell growth by inhibiting differentiation.
as §1, §8, §3, §4, §5, §9, §10, §7

Consider `CC(O)(c1cccc2[nH]nc(N)c12)C(F)(F)F` (centres unmarked) [Compound I-9, 2-(3-amino-1H-indazol-4-yl)-1,1,1-trifluoropropan-2-ol], for which the “IL-7: significant cytokine change vs. vehicle” value in the test on IL-7 is recorded as “*** (Three stars indicates P<0.001)”. Besides, in the test on IL-10, the “IL-10: significant cytokine change vs. vehicle” value is reported as “**** (Four stars indicates P<0.0001)”. In addition, in the test on IL-15, the “IL-15: significant cytokine change vs. vehicle” value was “** (Two stars indicates P<0.01)”. Moreover, the “MCP-1: significant cytokine change vs. vehicle” value in the test on MCP-1(CCL2) is recorded as “* (One star indicates P<0.05)”. In the test on MIP-1a(CCL3), the “MIP-1a: significant cytokine change vs. vehicle” value was “** (Two stars indicates P<0.01)”. The “MIP-2: significant cytokine change vs. vehicle” value in the test with MIP2(CXCL2) (100 mpk IP) is “* (One star indicates P<0.05)”.

Turning to `CC(C)(O)c1cc2c(cc1N)OCO2` [Compound I-29], the “4-HNE binding (rate of formation of aldehyde adduct)” value in [1] is “the best binding”. The “IL-2: significant cytokine change vs. vehicle” value with IL-2 is “** (Two stars indicates P<0.01)”. The “IL-6: significant cytokine change vs. vehicle” value in the test on IL-6 was “** (Two stars indicates P<0.01)”. Also, the “IL-9: significant cytokine change vs. vehicle” value in the test with IL-9 is recorded as “*** (Three stars indicates P<0.001)”. Also, the “IL-12 (p70): significant cytokine change vs. vehicle” value in the test with IL-12(p70) is “**** (Four stars indicates P<0.0001)”. Also, the “KC: significant cytokine change vs. vehicle” value with KC is “* (One star indicates P<0.05)”. The “LIF: significant cytokine change vs. vehicle” value in test [2] was “**** (Four stars indicates P<0.0001)”. Moreover, the “MIP-2: significant cytokine change vs. vehicle” value with MIP2(CXCL2) (200 mpk PO) is listed as “* (One star indicates P<0.05)”.
